Measured values published in US20210070748A1, “INHIBITORS OF BRUTONS TYROSINE KINASE” (Pharmacyclics LLC, priority 2015, published 2021).

Key:
Assay type in all cases: biochemical
JAK3 = molecular target: T1, JAK3 (Homo sapiens, UniProt P52333); test: Inhibition of a panel of kinases, in vitro HotSpot kinase assay: JAK3; settings: D-compounds panel data; 1 μM ATP; read-out: IC50 JAK3
T1 sequence (P52333 1-1124): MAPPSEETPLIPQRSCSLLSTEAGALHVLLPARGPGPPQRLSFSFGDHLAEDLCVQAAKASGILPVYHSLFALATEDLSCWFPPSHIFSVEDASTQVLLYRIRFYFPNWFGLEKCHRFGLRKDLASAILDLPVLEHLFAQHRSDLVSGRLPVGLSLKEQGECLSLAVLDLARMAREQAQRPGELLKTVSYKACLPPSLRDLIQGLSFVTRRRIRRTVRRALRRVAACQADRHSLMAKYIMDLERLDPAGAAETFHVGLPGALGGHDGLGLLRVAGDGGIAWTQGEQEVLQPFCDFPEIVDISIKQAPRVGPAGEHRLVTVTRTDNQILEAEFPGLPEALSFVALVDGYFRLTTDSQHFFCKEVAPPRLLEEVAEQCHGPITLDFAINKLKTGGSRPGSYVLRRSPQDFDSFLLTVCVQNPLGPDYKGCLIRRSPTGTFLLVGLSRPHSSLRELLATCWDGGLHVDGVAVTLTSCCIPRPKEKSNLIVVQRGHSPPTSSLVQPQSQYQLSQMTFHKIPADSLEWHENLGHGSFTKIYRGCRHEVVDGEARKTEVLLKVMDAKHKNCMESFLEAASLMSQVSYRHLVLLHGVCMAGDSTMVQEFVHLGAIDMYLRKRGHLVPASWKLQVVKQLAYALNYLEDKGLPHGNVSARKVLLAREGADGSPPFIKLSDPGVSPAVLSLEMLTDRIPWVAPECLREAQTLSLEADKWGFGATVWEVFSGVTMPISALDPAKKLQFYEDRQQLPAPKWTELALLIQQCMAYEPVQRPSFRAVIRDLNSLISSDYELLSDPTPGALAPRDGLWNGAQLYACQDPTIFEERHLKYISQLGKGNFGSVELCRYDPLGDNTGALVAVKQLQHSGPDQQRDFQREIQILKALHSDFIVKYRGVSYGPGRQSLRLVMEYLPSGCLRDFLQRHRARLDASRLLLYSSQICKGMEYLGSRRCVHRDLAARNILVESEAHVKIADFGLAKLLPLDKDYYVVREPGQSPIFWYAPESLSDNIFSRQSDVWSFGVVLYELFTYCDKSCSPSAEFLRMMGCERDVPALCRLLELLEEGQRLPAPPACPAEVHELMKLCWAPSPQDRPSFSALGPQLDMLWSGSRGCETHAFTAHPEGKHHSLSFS

SRC = SRC (Homo sapiens, UniProt P12931); test: Inhibition of a panel of kinases, in vitro HotSpot kinase assay: SRC; settings: D-compounds panel data; 1 μM ATP
Chain of SRC (P12931 whole entry): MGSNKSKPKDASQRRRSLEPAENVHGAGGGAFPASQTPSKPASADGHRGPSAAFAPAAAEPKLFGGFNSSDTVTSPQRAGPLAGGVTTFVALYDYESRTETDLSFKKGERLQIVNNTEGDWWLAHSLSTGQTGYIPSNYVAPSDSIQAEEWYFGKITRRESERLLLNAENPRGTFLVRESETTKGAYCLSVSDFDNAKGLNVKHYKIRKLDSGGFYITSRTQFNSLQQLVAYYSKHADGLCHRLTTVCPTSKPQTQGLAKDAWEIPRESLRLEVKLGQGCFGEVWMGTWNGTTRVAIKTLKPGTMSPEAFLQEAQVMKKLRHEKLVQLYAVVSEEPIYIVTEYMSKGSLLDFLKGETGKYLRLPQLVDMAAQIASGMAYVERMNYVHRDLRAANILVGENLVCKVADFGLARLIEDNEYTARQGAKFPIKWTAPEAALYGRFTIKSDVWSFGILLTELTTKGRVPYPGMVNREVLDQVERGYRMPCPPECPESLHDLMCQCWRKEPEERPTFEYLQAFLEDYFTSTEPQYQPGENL
Experimental: (§1) The degree of inhibition of a panel of kinases is determined using the in vitro HotSpot kinase assay (purified enzymes, ^33P-ATP, an appropriate substrate and 1 μM ATP).

TEC = molecular target: T2, TEC (Homo sapiens, UniProt P42680); test: Inhibition of a panel of kinases, in vitro HotSpot kinase assay: TEC; settings: D-compounds panel data; 1 μM ATP
T2 sequence (P42680 1-631): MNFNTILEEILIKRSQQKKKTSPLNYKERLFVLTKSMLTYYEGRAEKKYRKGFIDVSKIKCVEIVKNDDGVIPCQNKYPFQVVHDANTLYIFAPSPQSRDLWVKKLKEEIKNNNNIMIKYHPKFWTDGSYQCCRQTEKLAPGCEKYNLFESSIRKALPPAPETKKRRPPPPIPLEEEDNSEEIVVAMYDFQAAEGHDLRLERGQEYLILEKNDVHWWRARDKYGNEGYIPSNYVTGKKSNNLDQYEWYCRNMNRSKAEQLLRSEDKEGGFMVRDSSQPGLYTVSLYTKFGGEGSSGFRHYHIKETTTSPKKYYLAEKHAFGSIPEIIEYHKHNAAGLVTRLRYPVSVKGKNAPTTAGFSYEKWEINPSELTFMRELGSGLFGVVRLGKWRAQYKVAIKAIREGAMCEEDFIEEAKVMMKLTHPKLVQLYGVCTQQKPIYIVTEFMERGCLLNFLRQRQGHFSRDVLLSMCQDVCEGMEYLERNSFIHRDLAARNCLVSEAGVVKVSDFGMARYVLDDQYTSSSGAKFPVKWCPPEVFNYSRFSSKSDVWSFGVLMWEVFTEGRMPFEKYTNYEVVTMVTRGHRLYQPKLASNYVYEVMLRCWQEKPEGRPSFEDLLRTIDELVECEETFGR
Experimental: as §1

| Compound | IC50 (JAK3) [nM] | IC50 (SRC) [nM] | IC50 (TEC) [nM] |
| --- | --- | --- | --- |
| C[C@@H]1[C@H](NC(=O)N(C)C2CC2)CCCN1c1cnc(C(N)=O)c(Nc2cnn(C)c2)n1 [Example D-314, 5-[(2R,3R)-3-{[cyclopropyl(methyl)carbamoyl]amino}-2-methylpiperidin-1-yl]-3-[(1-methyl-1H-pyrazol-4-yl)amino]pyrazine-2-carboxamide] | 1000 to 10000 | 10 to 100 | 10 to 100 |
| Cc1c(Nc2nc(N3CCC[C@@H](NC(=O)c4ccc(C5CC5)cc4)[C@H]3C)cnc2C(N)=O)cnn1C [Example D-271, 5-[(2R,3R)-3-(4-cyclopropylbenzamido)-2-methylpiperidin-1-yl]-3-[(1,5-dimethyl-1H-pyrazol-4-yl)amino]pyrazine-2-carboxamide] | > 10000 | 1000 to 10000 | 1000 to 10000 |
| C[C@@H]1[C@H](NC(=O)c2ccc(C(C)(C)C)cc2)CCCN1c1cnc(C(N)=O)c(Nc2cnn(C)c2)n1 [Example D-22, 5-[(2R,3R)-3-(4-tert-butylbenzamido)-2-methylpiperidin-1-yl]-3-[(1-methyl-1H-pyrazol-4-yl)amino]pyrazine-2-carboxamide] | > 10000 | 100 to 1000 | 10 to 100 |
| C[C@@H]1[C@H](NC(=O)c2ccc3nccn3c2)CCCN1c1cnc(C(N)=O)c(Nc2cnn(C)c2)n1 [Example D-266, 5-[(2R,3R)-3-(imidazo[1,2-a]pyridine-6-amido)-2-methylpiperidin-1-yl]-3-[(1-methyl-1H-pyrazol-4-yl)amino]pyrazine-2-carboxamide] | 1000 to 10000 | 10 to 100 | ≤ 10 |
| CC(=O)N1CCC(n2cc(Nc3nc(N4CCC[C@@H](NC(=O)c5ccc(C6CC6)cc5)[C@H]4C)cnc3C(N)=O)cn2)CC1 [Example D-283, 3-{[1-(1-acetylpiperidin-4-yl)-1H-pyrazol-4-yl]amino}-5-[(2R,3R)-3-(4-cyclopropylbenzamido)-2-methylpiperidin-1-yl]pyrazine-2-carboxamide] | 1000 to 10000 | 10 to 100 | ≤ 10 |
| C[C@@H]1[C@H](NC(=O)c2ccc(C3CC3)cc2)CCCN1c1cnc(C(N)=O)c(Nc2cnn(CC#N)c2)n1 [Example D-287, 3-{[1-(cyanomethyl)-1H-pyrazol-4-yl]amino}-5-[(2R,3R)-3-(4-cyclopropylbenzamido)-2-methylpiperidin-1-yl]pyrazine-2-carboxamide] | 1000 to 10000 | 100 to 1000 | ≤ 10 |
| C[C@@H]1[C@H](NC(=O)c2ccc(C(C)(C)F)cc2)CCCN1c1cnc(C(N)=O)c(Nc2cnn(C)c2)n1 [Example D-251, 5-[(2R,3R)-3-[4-(2-fluoropropan-2-yl)benzamido]-2-methylpiperidin-1-yl]-3-[(1-methyl-1H-pyrazol-4-yl)amino]pyrazine-2-carboxamide] | 1000 to 10000 | 10 to 100 | ≤ 10 |

Now from value to molecule:

| IC50 (JAK3) [nM] | IC50 (SRC) [nM] | IC50 (TEC) [nM] | Compound |
| --- | --- | --- | --- |
| 100 to 1000 | 10 to 100 | ≤ 10 | C[C@@H]1[C@H](NC(=O)c2ccc(C(C)(C)O)cc2)CCCN1c1nnc(C(N)=O)c(Nc2cnn(C)c2)n1 [Example D-298, 3-[(2R,3R)-3-[4-(2-hydroxypropan-2-yl)benzamido]-2-methylpiperidin-1-yl]-5-[(1-methyl-1H-pyrazol-4-yl)amino]-1,2,4-triazine-6-carboxamide] |
| 100 to 1000 | 10 to 100 | ≤ 10 | C[C@@H]1[C@H](NC(=O)c2ccc(C(C)(O)CO)cc2)CCCN1c1cnc(C(N)=O)c(Nc2cnn(C)c2)n1 (single isomer, unassigned) [Example D-265] |
| > 10000 | > 10000 | > 10000 | C[C@@H]1[C@H](NC(=O)c2ccc(C3CC3)cc2)CCCN1c1cnc(C(N)=O)c(NCC2=CCN(C)CC2)n1 [Example D-300, 5-[(2R,3R)-3-(4-cyclopropylbenzamido)-2-methylpiperidin-1-yl]-3-{[(1-methyl-1,2,3,6-tetrahydropyridin-4-yl)methyl]amino}pyrazine-2-carboxamide] |
